The experiment deals with T1, b-Raf(V600E) (Homo sapiens, UniProt P15056, V600E).
T1 construct: made in house
Description: Raf/Mek Amplified Luminescence Proximity Homogeneous Assay (Alpha Screen), b-Raf(V600E). The format is biochemical. The note with it: mutant b-Raf(V600E), read-out: mut-b-RAF (IC50 in uM). On the procedure: Assay buffer: 50 mM Tris, pH 7.5, 15 mM MgCl2, 0.01% BSA, 1 mM DTT Stop buffer: 60 mM EDTA, 0.01% Tween20 Bead buffer: 50 mM Tris, pH 7.5, 0.01% Tween20
b-Raf(V600E), active: Recombinant in-house material biotinylated Mek, kinase dead: Recombinant in-house material Alpha Screen detection kit PerkinElmer, #6760617R Anti phospho-MEK½ Cell signaling #9121 384 well assay plates: White Greiner plates, #781207
b-Raf(V600E) approximately 4 pM c-Raf approximately 4 nM biotinylated Mek, Kinase dead approximately 10 nM
Pre-incubation time with compounds 60 min at room temperature Reaction time 1 or 3 hours at room temperature
Raf and biotinylated Mek, kinase dead, were combined at 2× final concentrations in assay buffer (50 mM Tris, pH 7.5, 15 mM MgCl2, 0.01% BSA and 1 mM DTT) and dispensed 10 μl per well in assay plates (Greiner white 384 well assay plates #781207) containing 0.5 μl of 40× of a raf kinase inhibitor test compound diluted in 100% DMSO. The plate was incubated for 60 min at room temperature.
The Raf kinase activity reaction was started by the addition of 10 μl per well of 2×ATP diluted in assay buffer. After 3 hours (bRaf(V600E)) or 1 hour (c-Raf), the reactions were stopped with the addition of 10 μl of stop reagent (60 mM EDTA). Phosphorylated product was measured using a rabbit anti-p-MEK (Cell Signaling, #9121) antibody and the Alpha Screen IgG (Protein A) detection Kit (PerkinElmer #6760617R), by the addition of 30 μL to the well of a mixture of the antibody (1:2000 dilution) and detection beads (1:2000 dilution of both beads) in bead buffer (50 mM Tris, pH 7.5, 0.01% Tween20). The additions were carried out under dark conditions to protect the detection beads from light. A lid was placed on top of the plate and incubated for 1 hour at room temperature, then the luminescence was read on a PerkinElmer Envision instrument. The concentration of each compound for 50% inhibition (IC50) was calculated by non-linear regression using XL Fit data analysis software.
The Raf/Mek Amplified Luminescence Proximity Homogeneous Assay described was used to generate the luminescence and mutant b-Raf(V600E) IC50 data for selected Raf Kinase Inhibitors shown in Table 1 above.

As usually defined, the IC50 is the concentration at which inhibition is half-maximal.

T1 sequence (P15056 whole entry V600E): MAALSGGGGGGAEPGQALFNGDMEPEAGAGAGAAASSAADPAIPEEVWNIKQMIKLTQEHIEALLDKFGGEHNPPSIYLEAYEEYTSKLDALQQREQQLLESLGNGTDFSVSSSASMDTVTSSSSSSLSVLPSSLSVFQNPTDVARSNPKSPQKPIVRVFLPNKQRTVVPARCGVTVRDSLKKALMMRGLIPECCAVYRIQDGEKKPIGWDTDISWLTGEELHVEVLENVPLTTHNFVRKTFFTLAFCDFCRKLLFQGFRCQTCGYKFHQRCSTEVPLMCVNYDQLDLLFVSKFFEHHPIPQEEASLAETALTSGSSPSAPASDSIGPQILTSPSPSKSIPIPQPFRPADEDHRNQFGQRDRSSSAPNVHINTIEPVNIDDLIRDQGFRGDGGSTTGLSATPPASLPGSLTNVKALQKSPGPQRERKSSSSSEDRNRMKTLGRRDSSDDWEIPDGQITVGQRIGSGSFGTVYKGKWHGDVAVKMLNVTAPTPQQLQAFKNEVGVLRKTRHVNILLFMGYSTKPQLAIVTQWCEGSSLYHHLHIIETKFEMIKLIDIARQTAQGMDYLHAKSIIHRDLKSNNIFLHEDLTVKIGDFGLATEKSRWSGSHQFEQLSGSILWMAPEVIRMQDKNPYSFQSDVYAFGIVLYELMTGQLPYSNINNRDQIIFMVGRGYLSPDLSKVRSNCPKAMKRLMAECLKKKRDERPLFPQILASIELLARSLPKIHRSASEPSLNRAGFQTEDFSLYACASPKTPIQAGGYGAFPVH

Regarding `COc1cc(-c2[nH]c(-c3ccccc3)nc2-c2ccnc(NCCNC(C)=O)n2)cnc1N` [Compound 67, N-(2-(4-(5-(6-amino-5-methoxypyridin-3-yl)-2-phenyl-1H-imidazol-4-yl)pyrimidin-2-ylamino)ethyl)acetamide], the concentration for half-maximal inhibition (IC50) amounted to 0.0001 µM.
Then `c1ccc(-c2nc(-c3ccncc3)c(-c3cnc4[nH]cnc4c3)[nH]2)cc1` [Compound 53, 6-(2-phenyl-4-(pyridin-4-yl)-1H-imidazol-5-yl)-3H-imidazo[4,5-b]pyridine], with 0.29 µM; and `COc1cc(-c2[nH]c(-c3ccc(F)cc3)nc2-c2ccnc(N[C@H]3CCN(C(C)=O)C3)n2)cnc1N` [Compound 194, (S)-1-(3-(4-(5-(6-amino-5-methoxypyridin-3-yl)-2-(4-fluorophenyl)-1H-imidazol-4-yl)pyrimidin-2-ylamino)pyrrolidin-1-yl)ethanone], with 0.008 µM.
With `COc1cc(-c2nc(-c3ccc(F)cc3)[nH]c2-c2ccnc(NC[C@H](C)NC(=O)[C@@H](C)OC)n2)cnc1N` [Compound 196, (R)-N-((S)-1-(4-(4-(6-amino-5-methoxypyridin-3-yl)-2-(4-fluorophenyl)-1H-imidazol-5-yl)pyrimidin-2-ylamino)propan-2-yl)-2-methoxypropanamide], the IC50 was 0.0002 µM.
For the molecule `COC(=O)N[C@@H](C)CNc1nccc(-c2nc(C(C)(C)C)[nH]c2-c2cnc3[nH]ccc3c2)n1` [Compound 262, (S)-methyl 1-(4-(2-tert-butyl-5-(1H-pyrrolo[2,3-b]pyridin-5-yl)-1H-imidazol-4-yl)pyrimidin-2-ylamino)propan-2-ylcarbamate], the IC50 stood at 0.0002 µM.
Then `COc1cc(-c2[nH]c(-c3ccccc3)nc2C2=CCOCC2)cnc1N` [Compound 80, 5-(4-(3,6-dihydro-2H-pyran-4-yl)-2-phenyl-1H-imidazol-5-yl)-3-methoxypyridin-2-amine], with 0.038 µM; and `COCC(=O)N[C@H](C)CNc1nccc(-c2[nH]c(-c3ccc(F)cc3)nc2-c2cnc(N)c(OC)n2)n1` [Compound 249, (R)-N-(1-(4-(4-(5-amino-6-methoxypyrazin-2-yl)-2-(4-fluorophenyl)-1H-imidazol-5-yl)pyrimidin-2-ylamino)propan-2-yl)-2-methoxyacetamide], with 0.012 µM.
Turning to `COc1cc(-c2nc(C(C)(C)C)[nH]c2-c2ccnc(Nc3ccc4c(c3)OC(F)(F)O4)n2)cnc1N` [Compound 189, 4-(4-(6-amino-5-methoxypyridin-3-yl)-2-tert-butyl-1H-imidazol-5-yl)-N-(2,2-difluorobenzo[d][1,3]dioxol-5-yl)pyrimidin-2-amine], the IC50 is 0.0003 µM.
Then `COc1cc(-c2nc(-c3ccccc3)[nH]c2-c2ccnc(N(C)C)n2)cnc1N` [Compound 63, 4-(4-(6-amino-5-methoxypyridin-3-yl)-2-phenyl-1H-imidazol-5-yl)-N,N-dimethylpyrimidin-2-amine], with 0.641 µM; and `COc1cc(-c2[nH]c(-c3ccc(F)cc3)nc2-c2cncs2)cnc1N` [Example 11, 5-(2-(4-fluorophenyl)-5-(thiazol-5-yl)-1H-imidazol-4-yl)-3-methoxypyridin-2-amine], with 0.0365 µM; and `Nc1ccc(-c2[nH]c(-c3ccccc3)nc2-c2ccncc2)c(F)n1` [Compound 37, 6-fluoro-5-(2-phenyl-4-(pyridin-4-yl)-1H-imidazol-5-yl)pyridin-2-amine], with 0.387 µM.
With `COCC(=O)N[C@@H](C)CNc1nccc(-c2oc(-c3ccc(F)cc3)nc2-c2cnc(N)c(OC)n2)n1` [Compound 217, (S)-N-(1-(4-(4-(5-amino-6-methoxypyrazin-2-yl)-2-(4-fluorophenyl)oxazol-5-yl)pyrimidin-2-ylamino)propan-2-yl)-2-methoxyacetamide] the figure was 0.002 µM; with `COCC(=O)N[C@@H](C)CNc1nccc(-c2oc(-c3ccc(C(F)(F)F)cc3)nc2-c2cnc(N)c(OC)n2)n1` [Compound 229, (S)-N-(1-(4-(4-(5-amino-6-methoxypyrazin-2-yl)-2-(4-(trifluoromethyl)phenyl)-oxazol-5-yl)pyrimidin-2-ylamino)propan-2-yl)-2-methoxyacetamide], 0.003 µM; with `COc1cc(-c2[nH]c(-c3ccc(C(N)=O)cc3)nc2-c2ccncc2)cnc1N` [Compound 126, 4-(5-(6-amino-5-methoxypyridin-3-yl)-4-(pyridin-4-yl)-1H-imidazol-2-yl)benzamide], 0.0035 µM.
Then `COc1cc(-c2nc(C(C)(C)C)[nH]c2-c2ccnc(Nc3ccc(Cl)c(C(F)(F)F)c3)n2)cnc1N` [Compound 222, 4-(4-(6-amino-5-methoxypyridin-3-yl)-2-tert-butyl-1H-imidazol-5-yl)-N-(4-chloro-3-(trifluoromethyl)phenyl) pyrimidin-2-amine], with 0.0002 µM.
With `COc1cc(-c2[nH]c(-c3ccccc3C(F)(F)F)nc2-c2ccncc2)cnc1N` [Compound 136, 3-methoxy-5-(4-(pyridin-4-yl)-2-(2-(trifluoromethyl)phenyl)-1H-imidazol-5-yl)pyridin-2-amine], the 50% inhibitory concentration (IC50) came to 0.0028 µM.
Then `COc1cc(-c2[nH]c(-c3ccc(F)cc3)nc2-c2ccnc(NCC3CC3)n2)cnc1N` [Compound 183, 4-(5-(6-amino-5-methoxypyridin-3-yl)-2-(4-fluorophenyl)-1H-imidazol-4-yl)-N-(cyclopropylmethyl) pyrimidin-2-amine], with 0.0007 µM; and `CNc1ncc(-c2nc(-c3ccccc3)[nH]c2-c2ccncc2)cn1` [Compound 83, N-methyl-5-(2-phenyl-5-(pyridin-4-yl)-1H-imidazol-4-yl)pyrimidin-2-amine], with 0.197 µM.
With `COc1cc(Nc2nccc(-c3[nH]c(C)nc3-c3cnc(N)c(OC)c3)n2)ccn1` [Compound 244, 4-(4-(6-amino-5-methoxypyridin-3-yl)-2-methyl-1H-imidazol-5-yl)-N-(2-methoxypyridin-4-yl)pyrimidin-2-amine] the figure was 0.003 µM; with `COc1cc(-c2[nH]c(-c3ccc(O)cc3)nc2-c2ccncc2)cnc1N` [Compound 71, 4-(5-(6-amino-5-methoxypyridin-3-yl)-4-(pyridin-4-yl)-1H-imidazol-2-yl)phenol], 0.0003 µM.
Then `COc1cc(-c2nc(C(C)(C)C)[nH]c2-c2ccncc2)cnc1N` [Compound 128, 5-(2-tert-butyl-5-(pyridin-4-yl)-1H-imidazol-4-yl)-3-methoxypyridin-2-amine], with 0.001 µM; and `COc1cc(-c2nc(C(C)(C)C)[nH]c2-c2ccnc(NC[C@H](C)NC(C)=O)n2)cnc1N` [Compound 218, (S)-N-(1-(4-(4-(6-amino-5-methoxypyridin-3-yl)-2-tert-butyl-1H-imidazol-5-yl)pyrimidin-2-ylamino)propan-2-yl)acetamide], with 0.0003 µM.
`Nc1n[nH]c2cc(-c3[nH]c(-c4ccccc4)nc3-c3ccncc3)ccc12` [Compound 24, 6-(2-phenyl-4-(pyridin-4-yl)-1H-imidazol-5-yl)-1H-indazol-3-amine]: the IC50 came out at 0.058 µM.
Then `COc1cc(-c2nc(-c3ccccc3)oc2-c2ccncc2)cnc1N` [Compound 92, 3-methoxy-5-(2-phenyl-5-(pyridin-4-yl)oxazol-4-yl)pyridin-2-amine], with 0.0003 µM.
Take `COc1ccc(-c2nc(-c3ccncc3)c(-c3cnc(N)c(OC)c3)[nH]2)cc1` [Compound 69, 3-methoxy-5-(2-(4-methoxyphenyl)-4-(pyridin-4-yl)-1H-imidazol-5-yl)pyridin-2-amine]: the 50% inhibitory concentration (IC50) was 0.0003 µM.
With `CCc1nc(-c2cnc(N)c(OC)c2)c(-c2ccnc(Nc3ccnc(OC)c3)n2)[nH]1` [Compound 243, 4-(4-(6-amino-5-methoxypyridin-3-yl)-2-ethyl-1H-imidazol-5-yl)-N-(2-methoxypyridin-4-yl)pyrimidin-2-amine] the figure was 0.0004 µM; with `COc1cc(-c2nc(-c3ccccc3)[nH]c2-c2ccnc(NC(C)=O)c2)cnc1N` [Compound 82, N-(4-(4-(6-amino-5-methoxypyridin-3-yl)-2-phenyl-1H-imidazol-5-yl)pyridin-2-yl)acetamide], 0.002 µM; with `COc1cc(-c2nc(C(C)(C)C)[nH]c2-c2ccnc(NC[C@H](C)NC(=O)[C@H](C)OC)n2)cnc1N` [Compound 241, (S)-N-((S)-1-(4-(4-(6-amino-5-methoxypyridin-3-yl)-2-tert-butyl-1H-imidazol-5-yl)pyrimidin-2-ylamino)propan-2-yl)-2-methoxypropanamide], 0.0007 µM.
Then `COc1cc(-c2nc(-c3ccccc3)[nH]c2-c2ccncc2)cnc1N` [Example 1, 3-Methoxy-5-(2-phenyl-5-(pyridine-4-yl)-1H-imidazol-4-yl)pyridine-2-amine], with 0.001 µM.

The record behind these values is patent US20100003246A1, “Novel heterocyclic compounds and uses therof” (priority 2008, published 2010).
